Assay results from patent US12714725B2, “Stabilization of selenite in a nutritional solution by dissolved oxygen” (BAXTER INTERNATIONAL INC., priority 2019, dated 2026).

Experiments:
[1] = Stability of a mix of the 9 TE at pH 2.2 with 200 mM malic acid in a glass bottle; type: physicochemical; details: heat sterilized, about 3 ppm dissolved oxygen; for Concentration recovered, T6 M 5° C. / Percentage of the recovered TE, T6 M 5° C.: 6 months at 5° C.; for Concentration recovered, T6 M 5° C. / Concentration recovered, T6 M 40° C.: pH 2.2, 200 mM malic acid; for Percentage of the recovered TE, T6 M 5° C. / Percentage of the recovered TE, T6 M 40° C.: relative to theoretical concentration; for Concentration recovered, T6 M 40° C. / Percentage of the recovered TE, T6 M 40° C.: 6 months at 40° C.
Experimental: The presence of oxygen promotes selenite stability. To ensure that it is not deleterious to another TE the stability of a mix of the 9 TE of interest (i.e. Zn, Cu, Cr, Mo, Mn, Fe, I, F & Se) was evaluated at pH 2.2 with 200 mM of malic acid (to ensure Iodide stability) and stored in a glass bottle (so containing about 3 ppm of dissolved oxygen). The solution was heat sterilized and stored 6 months at 40° C. or 5° C. (T6M 40° C. and T6M 5° C., respectively).

[2] = cited from earlier work
[3] = Full factorial DoE on the stability of Selenite (container material, pH, sterilization, storage temperature, dissolved oxygen); type: physicochemical
Experimental: A full factorial DoE was designed to evaluate the impact of five factors on the stability of Selenite:
Container material: an interaction between Selenite and plastic bags material was previously highlighted. To evaluate this factor a neutral material i.e. glass bottles was used as a comparison to plastic bags.
pH of the solution: all previous studies were conducted at pH<3.5 to ensure stability of Fe. A comparison with a native pH>7 obtained by simple dilution of Selenite into MilliQ water allowed to evaluate the impact of this parameter.
Sterilization: the terminal heat sterilization conducted on samples may initiate degradative chemical reactions by heat exposure. Unsterilized VS sterilized samples were compared regarding Selenite stability to assess the impact of this process step.
Storage temperature: accelerated stability studies are classically conducted at 40° C. However, selenite might be sensitive to it and a comparison with samples stored at 5° C. was conducted.
Dissolved oxygen content: oxygen is involved in many redox reactions most of the time deleterious for macro and micronutrients (particularly vitamins). To assess the impact of this parameter on Selenite stability, solutions of Selenite were flushed either with oxygen (up to saturation at about 8 ppm) or with nitrogen (DO<0.5 ppm).
All combinations of factors were produced and stored under appropriate conditions for 6 months. They were then submitted to several tests to evaluate the impact of each factor on several responses.
The following readouts were performed in order to assess the impact of the factors listed above:
Se assay to evaluate the degradation of Selenium.
Visual inspection of the samples to detect any precipitate, particles or discoloration.
pH measurement to evaluate the evolution of sample pH after 6 months storage.
Dissolved oxygen measurement to evaluate the evolution of the dissolved oxygen after 6 months of storage. […]

Row | Concentration recovered, T6 M 5° C. [1] [ng/mL] | Concentration recovered, T6 M 40° C. [1] [ng/mL] | SMILES | Percentage of the recovered TE, T6 M 5° C. [1] [%] | Percentage of the recovered TE, T6 M 40° C. [1] [%] | Chemical form; Solubility in water [2] | Stability in solution ([3]; absence of stable amount of DO in the said range, storage for more than 1-3 months) | Stability in solution ([3]; products with stable DO concentration of above 0.5 ppm, specifically 0.5 ppm to 8 ppm) | Oxygen amount sufficient to ensure the stability of Selenite in solution ([3]; regression of Se assay against log dissolved oxygen, sterilized samples stored at 40° C. (FIG. 2))
1 | 9784 | 10504 | [Cl][Cu][Cl] [Cu, copper chloride] | 81.1 | 87.1 | 706 mg/mL | – | – | –
2 | – | – | [F-].[Na+] [F, sodium fluoride] | 94 | 88 | – | – | – | –
3 | 3167 | 3401 | [I-].[K+] [I, potassium iodide] | 78.6 | 84.4 | – | – | – | –
4 | 653 | 707 | [Na+].[Na+].[O]=[Mo](=[O])([O-])[O-] [Mo, sodium molybdate] | 79.9 | 86.6 | – | – | – | –
5 | – | – | O=[Se](O)O [Selenite, sodium selenite] | – | – | – | instable | stable | around 0.5 ppm

Row | SMILES | Concentration recovered, T6 M 5° C. [1] [ng/mL] | Concentration recovered, T6 M 40° C. [1] [ng/mL] | Percentage of the recovered TE, T6 M 5° C. [1] [%] | Percentage of the recovered TE, T6 M 40° C. [1] [%] | Chemical form; Solubility in water [2] | Stability in solution ([3]; absence of stable amount of DO in the said range, storage for more than 1-3 months) | Stability in solution ([3]; products with stable DO concentration of above 0.5 ppm, specifically 0.5 ppm to 8 ppm) | Oxygen amount sufficient to ensure the stability of Selenite in solution ([3]; regression of Se assay against log dissolved oxygen, sterilized samples stored at 40° C. (FIG. 2))
6 | [Cl][Cr]([Cl])[Cl] [Cr, chromium chloride] | 306 | 329 | 77.3 | 83.1 | 585 mg/mL | – | – | –
7 | [Cl-].[Cl-].[Zn+2] [Zn, zinc chloride] | 158347 | 171822 | 77.8 | 84.4 | 4.32 kg/L | – | – | –
